# Results: the COVID Moonshot data (paper PMC7615835)
# Where “and” joins values, the source holds several entries; their conditions need not be identical. Equal entries are not always repeated.
# Target: SARS-CoV-2 Main Protease (SARS-CoV-2) (UniProt P0DTD1)
row,SMILES,IC50
1,N#CC1(CS(=O)(=O)N2Cc3ccc(Cl)cc3C(C(=O)Nc3cncc4cc(NS(=O)(=O)C5CC5)ccc34)C2)CC1 (stereo not given),< 0.05 µM
2,N#Cc1ccc(Cl)c(Nc2cc(Cl)cc(CC(=O)Nc3cncc4ccccc34)c2)c1,1.99 µM
3,O=C(CCl)N1CCCN(S(=O)(=O)c2cccc(F)c2)CC1,17.2 µM
4,COc1ccccc1OCCNC(=O)c1cc(=O)[nH]c2cc(F)ccc12,> 99.5 µM
5,CC(C)(COP(=O)(O)OP(=O)(O)OC[C@H]1O[C@@H](n2cnc3c(N)ncnc32)[C@H](O)[C@@H]1OP(=O)(O)O)[C@@H](O)C(=O)NCCC(=O)NCCSC(=O)CCC(=O)O (stereo in doubt),> 99 µM
6,O=c1[nH]c(Cc2cccc(S(F)(F)(F)(F)F)c2)nc2cnccc12,> 99.5 µM
7,Cc1[nH]c2ccccc2c1C(=O)CSc1nc2cc(Cl)cnc2[nH]1,> 99.5 µM
8,O=C(CC1(C(=O)Nc2cncc3ccccc23)CCOc2ccc(Cl)cc21)N1CCN(CC(F)(F)CO)CC1 (stereo not given),7.28 µM
9,C=CC(=O)NCc1ccccc1S(=O)(=O)NC,> 99.5 µM
10,O=C(Cc1cc(Cl)cc(Br)c1)Nc1cncc2ccccc12,> 9.95 µM
11,COc1cccc(N2CCN(C(=O)c3cc(=O)[nH]c4ccccc34)CC2)c1,7.55 µM
12,O=C(Cc1cccc(Cl)c1)Nc1cncn1-c1ccccc1,> 99.5 µM
13,N#Cc1ccc(CN2CCC(C3CCNC3)CC2)cc1 (stereo not given),2.06 µM
14,Cc1ccn2ncc(C(=O)Nc3ccc4[nH]c(C)cc(=O)c4c3)c2n1,> 99.5 µM
15,COc1c(O[C@@H]2O[C@H](CO)[C@@H](O)[C@H](O)[C@H]2O)cc2oc(-c3ccc(O)cc3)cc(=O)c2c1O (stereo in doubt),> 99.5 µM
16,CCNC(=O)CN1CC2(CCN(c3cncc4ccccc34)C2=O)c2cc(Cl)ccc2S1(=O)=O (stereo not given),0.275 µM
17,CC(C)(C)NC(=O)CN1CC(C(=O)Nc2cncc3cc(S(C)(=O)=O)ccc23)c2cc(Cl)ccc2C1=O (stereo not given),0.248 µM
18,O=C(Cc1ccccc1Cl)Nc1cncc2ccccc12,> 99.5 µM
19,COc1cccc(CN2CCN(C(=O)c3cc(=O)[nH]c4ccccc34)CC2)c1,27.3 µM
20,O=C(Cc1cccc(Cl)c1)Nn1cnc2ccccc21,8.3 µM
21,O=C(NCCc1cccc(F)c1)C(c1cccnc1)N(C(=O)c1cnc[nH]1)C1CCC2OCCC2C1 (stereo not given),> 99 µM
22,O=C(Cc1cc(Cl)cc(Nc2cc(Br)cc(C(F)(F)F)c2)c1)Nc1cncc2ccccc12,1.87 µM
23,O=C(CC1(C(=O)Nc2cncc3ccccc23)CCOc2ccc(Cl)cc21)N1CCCCC1c1ccn[nH]1 (stereo not given),0.616 µM
24,CCOc1ccc(N(C(=O)c2cocn2)C(C(=O)NCCc2cccc(F)c2)c2cccnc2)cc1 (stereo not given),15.5 µM

row,SMILES,IC50
1,CNC(=O)C1(N2Cc3ccc(Cl)cc3C3(CCN(c4cncc5ccccc45)C3=O)C2)CC1 (stereo not given),0.0732 µM
2,CCNC(=O)CN1CC(C(=O)Nc2cncc3cc(F)ccc23)c2cc(Cl)ccc2C1=O (stereo not given),0.161 µM
3,O=C(Cc1cc(Cl)cc(N2CCN(c3cccc([N+](=O)[O-])c3)CC2)c1)Nc1cncc2ccccc12,2.87 µM
4,CC(NC(=O)c1ccc2oc(=S)[nH]c2c1)c1nnc2ccccn12 (stereo not given),> 99.5 µM
5,CCOC(=O)c1ncoc1CNC(=O)C(c1cccnc1)N(C(=O)c1cocn1)c1ccc(C(C)(C)C)cc1 (stereo not given),5.88 µM
6,COC(=O)[C@H]1C[C@H](NC(=O)C(c2cccnc2)N(C(=O)c2cocn2)c2ccc(C(C)(C)C)cc2)CN1C(=O)OC(C)(C)C (stereo in doubt),0.837 µM
7,Cc1cn2nc(NCc3ccc4ncccc4c3)sc2n1,> 99.5 µM
8,O=C(NCCc1cccc(F)c1)C(c1cccnc1)N(C(=O)c1cocn1)C1CCN(c2ccccc2F)C1 (stereo not given),> 99.5 µM
9,O=C(Cc1cc(Cl)cc(Nc2ccc(Br)cc2O)c1)Nc1cncc2ccccc12,3.89 µM
10,CCOC(=O)c1c(COc2cc(Cl)cc(CC(=O)Nc3cnccc3C)c2)oc2ccccc12,> 99.5 µM
11,O=C(Cc1cccc(Cl)c1)Nc1nnc2ccccn12,> 99.5 µM
12,O=C(Cc1cccc(Cl)c1)Nc1cnccc1C(F)(F)F,18.2 µM and > 9.95 µM
13,Cc1c(N)cncc1NC(=O)Cc1cccc(C#N)c1,16.1 µM
14,O=C(Cc1cc(Cl)cc(Nc2ccc(Oc3ccccc3Cl)cc2)c1)Nc1cncc2ccccc12,2.49 µM
15,CC1(CS(=O)(=O)N2Cc3ccc(Cl)cc3[C@@H](C(=O)Nc3cncc4ccccc34)C2)CC1 (stereo in doubt),4.58 µM
16,COC(=O)c1c(C)n(S(C)(=O)=O)c2ccc(N(C(=O)c3ccco3)S(C)(=O)=O)cc12,0.935 µM
17,O=C(Cc1cc(Cl)cc(Nc2ccc(-n3cccn3)cc2)c1)Nc1cncc2ccccc12,2.12 µM
18,O=C(NC[C@@]1(C(=O)Nc2cncc3ccccc23)CCOc2ccc(Cl)cc21)[C@]1(O)CCSC1 (stereo in doubt),1.94 µM
19,Cc1ccc2nc(Nc3cc(Cl)cc(CC(=O)Nc4cncc5ccccc45)c3)sc2c1,22.9 µM
20,Cc1cn2ccc(C(=O)Nc3nc(-c4cnn(C)c4)cs3)cc2n1,> 99.5 µM
21,O=C(CN1CC(C(=O)Nc2cncc3cc(F)ccc23)c2cc(Cl)ccc2C1=O)NCC1CC1 (stereo not given),0.216 µM
22,Cc1csc2ncc(C(=O)Nc3cccc4ncccc34)c(=O)n12,> 99.5 µM
23,Cc1cc(C)c(S(=O)(=O)N2CCCC2C(=O)Nc2ccc3[nH]c(=O)sc3c2)c(C)c1 (stereo not given),> 99.5 µM
24,Cc1c(Cl)cc(S(=O)(=O)N2CC=C(c3c[nH]c4ncccc34)CC2)cc1[N+](=O)[O-],> 99.5 µM

row,SMILES,IC50
1,CS(=O)(=O)c1ccc2c(NC(=O)C3CN(CC(=O)NC4COC4)C(=O)c4ccc(Cl)cc43)cncc2c1 (stereo not given),0.866 µM
2,CN(C)c1ccc(N(Cc2ccsc2)C(=O)Cn2nnc3ccccc32)cc1,1.79 µM
3,Cc1nc(C2CC2)oc1C(=O)N(c1ccc(C(C)(C)C)cc1)C(C(=O)NCCc1cccc(F)c1)c1cccnc1 (stereo not given),> 99.5 µM
4,COc1nc2ncc(C(C(=O)NCCc3cccc(F)c3)N(C(=O)c3cocn3)c3ccc(C(C)(C)C)cc3)cn2n1 (stereo not given),33.4 µM
5,COCc1cc(Cl)cc(CN2CCN(C(=O)CCl)CC2)c1,4.77 µM
6,Cc1cc(Nc2cc(Cl)cc(CC(=O)Nc3cncc4ccccc34)c2)ncc1I,2.35 µM
7,O=C(Cc1cc(Cl)cc(N2CCN(c3ncccn3)CC2)c1)Nc1cncc2ccccc12,2.52 µM
8,CN(Cc1nnc2ccccn12)C(=O)c1ccnc2ccccc12,> 99.5 µM
9,O=C(Cc1cc(Cl)cc(Cl)c1)Nc1cncc2ccccc12,1.37 µM
10,CC1(NC(=O)CN2Cc3ccc(Cl)cc3C3(CCN(c4cncc5ccccc45)C3=O)C2)CC1 (stereo not given),0.271 µM
11,O=c1c(O[C@@H]2O[C@H](CO)[C@H](O)[C@H](O)[C@H]2O)c(-c2ccc(O)c(O)c2)oc2cc(O)cc(O)c12 (stereo in doubt),> 99.5 µM
12,CC(C)(C)N(Cc1ccccc1)c1cc(Cl)cc(CC(=O)Nc2cncc3ccccc23)c1,1.91 µM
13,COc1cccc(C2=N/C(=C/c3sccc3C)C(=O)O2)c1,1.17 µM
14,CCS(=O)(=O)c1cc(Cl)cc(CNS(=O)(=O)c2cccs2)c1,> 99.5 µM
15,O=C(NCCc1cccc(F)c1)C(c1cccnc1)N(C(=O)c1cocn1)C1CCCCCC1 (stereo not given),> 99.5 µM
16,CC(C)(C)c1ccc(N(C(=O)c2cocn2)C(C(=O)NCC2CCOC2)c2cccnc2)cc1 (stereo not given),5.42 µM
17,N#CC1(CS(=O)(=O)N2Cc3ccc(Cl)cc3C3(CCN(c4cncc5ccc(Cl)cc45)C3=O)C2)CC1 (stereo not given),0.82 µM
18,CN(C)c1ccc(N(Cc2cscn2)C(=O)Cn2nnc3ccccc32)cc1,4.85 µM
19,CC(NC(=O)C1CCC(=O)NC1)(C(=O)Nc1cncc2ccccc12)c1ccc(Cl)c(Cl)c1 (stereo not given),4.1 µM
20,O=C(Cc1cc(Cl)cc(N2CCC(Oc3ccccc3)CC2)c1)Nc1cncc2ccccc12,1.73 µM
21,Cc1nc(C(=O)N(c2ccc(C(C)(C)C)cc2)C(C(=O)NCCc2cccc(F)c2)c2cccnc2)nn1-c1nnc[nH]1 (stereo not given),> 99.5 µM
22,O=C(Cc1cccc(Cl)c1F)Nc1cncc2ccccc12,23.6 µM
23,O=C(Cc1cc(Cl)cc(Nc2cc(F)c(Br)c(F)c2)c1)Nc1cncc2ccccc12,2.05 µM
24,CS(=O)(=O)N1CCc2ccc(CN3CCN(C(=O)CCl)CC3)cc2C1,40.2 µM

row,SMILES,IC50
1,O=C(NCCc1cccc(F)c1)C(c1cccnc1)N(C(=O)c1cocn1)C1COc2cc(F)ccc21 (stereo not given),> 99.5 µM
2,O=C(Nc1cncc2ccccc12)C1CN(CC2CC2)C(=O)c2ccc(Cl)cc21 (stereo not given),0.381 µM
3,Cc1cccc2cncc(N3CCC4(CCOc5ccc(Cl)cc54)C3)c12 (stereo not given),> 99.5 µM
4,O=C(Cc1cccc(Cl)c1)Nc1cncc2sccc12,0.425 µM
5,CS(=O)(=O)Nc1ccc2cncc(NC(=O)C3CN(S(=O)(=O)CC4(C#N)CC4)Cc4ccc(Cl)cc43)c2c1 (stereo not given),0.267 µM
6,COC(=O)[C@H]1CC[C@@H](CNC(C(=O)Nc2cncc3ccccc23)c2cccc(Cl)c2)O1 (stereo in doubt),1.72 µM
7,CC(C)N(C)S(=O)(=O)N1Cc2ccc(Cl)cc2C(C(=O)Nc2cncc3ccccc23)C1 (stereo not given),0.126 µM
8,O=C(Cc1cc(Cl)cc(NCc2ccc(Cl)c(C(F)(F)F)c2)c1)Nc1cncc2ccccc12,2.98 µM
9,C#CCCCC(=O)N[C@@H](CC)C(=O)N[C@H](C(=O)N[C@@H](CC(C)C)C(=O)N[C@@H](CCC(=O)N(C)C)C(=O)COC(=O)c1c(C)cccc1C)C(C)(C)C (stereo in doubt),5.77 µM and 5.83 µM
10,Cc1cc(C)c(C#N)c(Sc2ncnc3c2nnn3Cc2ccccc2)n1,0.649 µM
11,O=C(Cc1cccc(Cl)c1)N1CC(O)Cc2ccccc21 (stereo not given),> 99.5 µM
12,N#Cc1ncc(Cl)cn1,> 99.5 µM
13,O=C(Cc1cc(Cl)cc(Nc2ccc(I)cc2)c1)Nc1cncc2ccccc12,1.84 µM
14,Cn1ncc2cc(C(=O)NNc3nc4cccnc4s3)cnc21,> 99.5 µM
15,O=C(COCC(=O)N1CCCC1)NC(C(=O)Nc1cncc2ccccc12)c1cccc(Cl)c1 (stereo not given),6.35 µM and 8.47 µM
16,O=C(CC1(C(=O)Nc2cncc3ccccc23)CCOc2ccc(Cl)cc21)N1CCC2CS(=O)(=O)CC2C1 (stereo not given),1.67 µM
17,N#Cc1cccc(C2CN(C(=O)CCl)Cc3ccccc32)c1 (stereo not given),1.17 µM
18,Cc1cc(C(=O)CCl)c(C)n1NC(=O)c1n[nH]c(=O)c2ccccc12,6.05 µM
19,Nc1nc2[nH]cnc2c(=O)n1-c1cc(Cl)cc(CC(=O)Nc2cncc3ccccc23)c1,1.86 µM
20,CC(=O)N1CCc2ccc(Cl)cc2C1C(=O)Nc1cncc2ccccc12 (stereo not given),2.85 µM
21,O=C(NCCc1cccc(F)c1)C(c1cccnc1)N(C(=O)c1ccco1)c1ccc(C2CCCC2)cc1 (stereo not given),0.282 µM
22,CC(C)(C)OC(=O)N1CC(NC(=O)C(c2cccnc2)N(C(=O)c2cocn2)c2ccc(C(C)(C)C)cc2)C1 (stereo not given),6.91 µM
23,CC(C)(C)c1ccc(N(C(=O)c2cnsn2)C(C(=O)NCCc2cccc(F)c2)c2cccnc2)cc1 (stereo not given),13.2 µM
